From PMC4176481, “Influence of D-glutamine and D-glutamic acid sequences in optical peptide probes targeted against the cholecystokinin-2/gastrin-receptor on binding affinity, specificity and pharmacokinetic properties” (EJNMMI Research, 2013)
Several values for one entry are separate records, joined by “and”; a condition that tells them apart may be missing. Equal entries are not always repeated. Entries after “also recorded” stand apart in the source; their conditions may differ. Starred links: 1 amine or outer side, 2 acyl side, 3 side chain; linkers in the order of their positions; H or OH if unused. Positions of bridges follow the written chain, without caps; N, C: chain ends. Non-standard residues stand in square brackets, D forms with d. Residues, ends and D or L forms follow the SMILES beside them. Chains are numbered I, II in the order given. *: point of attachment. X1 = CC(C)(C)c1cc(C=CC=CC=C2N(CCCS(=O)(=O)O)c3ccc(S(=O)(=O)O)cc3C2(C)CCCC(=O)*)c2cc3c(cc2[o+]1)N(CCCS(=O)(=O)O)C(C)(C)C=C3CS(=O)(=O)[O-]; Nle = CCCC[C@H](N)C(=O)O; X2 = O=C(C[*:1])[*:2]

T1: CCK2R (A431/CCK2R cells) (Homo sapiens, UniProt P32239)
T1 construct: expressed in transfected cells; host or cells: A431 human epidermoid carcinoma cells, stably transfected (gift from Dr. Luigi Aloj)
T1 sequence (P32239 1-447): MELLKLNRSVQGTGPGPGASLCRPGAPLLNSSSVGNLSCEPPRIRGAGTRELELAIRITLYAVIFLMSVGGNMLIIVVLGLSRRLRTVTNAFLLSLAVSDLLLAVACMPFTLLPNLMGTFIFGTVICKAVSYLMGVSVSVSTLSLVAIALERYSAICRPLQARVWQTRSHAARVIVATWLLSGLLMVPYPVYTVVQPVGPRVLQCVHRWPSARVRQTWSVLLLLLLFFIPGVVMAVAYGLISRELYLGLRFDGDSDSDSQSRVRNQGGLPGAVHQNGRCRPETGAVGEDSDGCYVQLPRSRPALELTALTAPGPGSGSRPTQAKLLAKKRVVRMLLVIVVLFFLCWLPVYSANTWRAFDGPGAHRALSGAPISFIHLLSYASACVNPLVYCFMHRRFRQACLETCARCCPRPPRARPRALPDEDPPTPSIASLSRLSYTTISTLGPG

T2: cholecystokinin-2/gastrin receptor (CCK2R) (Homo sapiens, UniProt P32239)
T2 chain: T1 sequence (P32239 1-447)

B1: QE minigastrin probe (peptide)
chain: {DY‑754}-AYGWMDF-NH2
modifications: also: N-terminal spacer of three alternating D-Gln and three D-Glu, order not given here, M5: Met or Nle

Legend:
A431/CCK2R cells = experiment: Target binding and internalization in vitro, fluorescence microscopy; assay type: cell-based, human; conditions: 0.5 μM, 30 min; for binding and internalization in A431/CCK2R cells at 37°C: n = 3
Protocol: (§1) Binding of the optical probes QE and bivQ to CCK2R-expressing (A431/CCK2R) and CCK2R-non-expressing (A431/WT) cells was investigated after incubation with 0.5 μM of each probe in culture medium for 30 min at 4°C to observe active surface receptor binding and at 37°C to check for internalization behaviour, which is mandatory for in vivo signal amplification. Incubation with 0.5 μM of the fluorochrome DY-754 should determine the role of the interaction of the peptide with the CCK2R for probe uptake. Probe incubation was followed by cell membrane staining with wheat germ agglutinin-Alexa Fluor®-555 (WGA-555, Invitrogen, Carlsbad, CA, USA), fixation in 4% (v/v) paraformaldehyde on ice and mounting in PermaFluor® Mounting medium (Thermo Fisher, Waltham, MA, USA), containing 0.2 μg/mL Hoechst 33258 (Applichem, Darmstadt, Germany) to stain cell nuclei. Fluorescence microscopy was carried out with the digital microscope EVOSfl (AMG, Bothell, WA, USA) equipped with three filter cubes for visualization of Hoechst (excitation 335 to 379 nm, emission 417 to 477 nm), WGA-555 (excitation 511 to 551 nm, emission 573 to 613 nm) and DY-754 (excitation 690 to 730 nm, emission 752 to 798 nm).

A431/WT cells = experiment: Target binding in vitro, fluorescence microscopy, CCK2R-non-expressing cells; assay type: cell-based, human; conditions: 0.5 μM, 30 min
Protocol: as §1

A431/CCK2R tumours = experiment: In vivo NIRF imaging of CCK2R-expressing xenografts; design: species or system athymic nude mice; conditions: for TBR, A431/CCK2R xenografts, under competition / tumour/background ratio (TBR), A431/CCK2R xenografts: 8 h p.i., mean ± SD, n = 5; for TBR, A431/CCK2R xenografts, under competition: co-injection of 10-fold molar excess of non-fluorescent minigastrin; for tumour/background ratio (TBR), A431/CCK2R xenografts: i.v. 108 nmol/kg QE or 54 nmol/kg bivQ; for TBR, CCK2R-expressing xenografts (summary bound): high-contrast imaging, discussion summary
Excerpt: Female athymic nude mice (Hsd:Athymic Nude-Foxn1^nu nu/nu; Harlan Laboratories, Eystrup, Germany) were housed under standard conditions with water and food ad libitum. Mice were maintained under a low-pheophorbide diet (C 1039; Altromin, Lage, Germany) to reduce tissue autofluorescence. All procedures were approved by the regional animal committee (reg. number 02-007/10) and were in accordance with international guidelines on the ethical use of animals. Animals were anesthetized with 2% isoflurane during all procedures. To implement subcutaneous xenografts, 5 × 10^5 CCK2R transfected (A431/CCK2R) and non-transfected wild-type cells (A431/WT) were dispensed in Matrigel™ (BD Biosciences, Heidelberg, Germany) and injected into the right (A431/CCK2R cells) and left (A431/WT cells) flank of 8- to 12-week-old animals 10 to 15 days before in vivo imaging.
Xenografts were inoculated in athymic nude mice (Hsd:Athymic Nude-Foxn1^nu nu/nu; Harlan Laboratories) 10 to 15 days before imaging by subcutaneous injection of 0.5 million A431/CCK2R […] and A431/WT cells (right flank) dispersed in Matrigel™ (BD Biosciences). For in vivo fluorescence imaging, 108 nmol/kg QE or 54 nmol/kg bivQ probe was injected intravenously (i.v.), according to the results of a dose determination experiment, which was set up to identify the optimal relation between sensitivity and contrast (Additional file 1). […] Another group received 108 nmol/kg of the unconjugated fluorophore DY-754 to determine dye-mediated non-specific tumour uptake, and one group remained untreated to control for probe-unrelated NIR fluorescence in the animals. At defined time points between 0 and 8 h p.i., NIRF fluorescence images (excitation 615 to 665 nm, emission >750 nm) and white light images of the animals were obtained. By means of spectral unmixing, tissue autofluorescence was removed from the images. Subsequently, fluorescence intensities (FI) were analysed over the time in regions of interest (ROIs) that were placed upon the tumours and non-tumour tissue. As a measure of contrast between tumour and non-tumour fluorescence, tumour/background ratios (TBRs) were calculated as a quotient of FItumour/FInon-tumour.

A431/WT tumours = experiment: In vivo NIRF imaging of CCK2R-negative xenografts; design: species or system athymic nude mice; conditions: 1 to 8 h p.i.; i.v. 108 nmol/kg QE or 54 nmol/kg bivQ; n = 5
Excerpt: Female athymic nude mice (Hsd:Athymic Nude-Foxn1^nu nu/nu; Harlan Laboratories, Eystrup, Germany) were housed under standard conditions with water and food ad libitum. Mice were maintained under a low-pheophorbide diet (C 1039; Altromin, Lage, Germany) to reduce tissue autofluorescence. All procedures were approved by the regional animal committee (reg. number 02-007/10) and were in accordance with international guidelines on the ethical use of animals. Animals were anesthetized with 2% isoflurane during all procedures. […]
Xenografts were inoculated in athymic nude mice (Hsd:Athymic Nude-Foxn1^nu nu/nu; Harlan Laboratories) 10 to 15 days before imaging by subcutaneous injection of 0.5 million A431/CCK2R (left flank) and A431/WT cells (right flank) dispersed in Matrigel™ (BD Biosciences). For in vivo fluorescence imaging, 108 nmol/kg QE or 54 nmol/kg bivQ probe was injected intravenously (i.v.), according to the results of a dose determination experiment, which was set up to identify the optimal relation between sensitivity and contrast (Additional file 1). […] Another group received 108 nmol/kg of the unconjugated fluorophore DY-754 to determine dye-mediated non-specific tumour uptake, and one group remained untreated to control for probe-unrelated NIR fluorescence in the animals. […]

[1] = Biodistribution, ex vivo NIRF of organs and xenografts 8 h p.i.; assay type: in vivo, athymic nude mice; conditions: for uptake into A431/WT tumours (biodistribution): n = 5, comparably high for DY-754 (p > 0.05)
Protocol: We investigated the biodistribution of the optical probes and of the fluorochrome DY-754 to determine the influence of the dye on tumour and organ accumulation. Therefore, 8 h p.i., ex vivo NIRF fluorescence images of the organs and the two xenografts (A431/CCK2R and A431/WT) per mouse were taken in combination with the placement of ROIs on these organs to assess semiquantitative fluorescence intensities.

[2] = tested on: A431/CCK2R and A431/WT tumours; experiment: Ex vivo intratumoural probe distribution in cryosections (Odyssey scanner); design: species or system athymic nude mice; conditions: acetone-fixed 30-μm cryosections of explanted xenografts, three specimens/group
Excerpt: To determine intratumoural distribution of the peptide probes ex vivo, acetone-fixed 30-μm cryosections of explanted xenografts were scanned mesoscopically in the near-infrared scanner Odyssey® (LI-COR, Bad Homburg, Germany) at 700 nm (autofluorescence) and 800 nm (probe fluorescence).

[3] = Metabolic (protease) stability in mouse liver homogenates; assay type: in vitro ADME; conditions: mouse liver homogenate, incubation up to 180 min, HPLC with UV/VIS detection at 750 nm, three parallels
Protocol: Supplementary file 2191-219X-3-75-S3.pptx: Additional file 3: Metabolic (protease) stability of QE and bivQ against the degradation by mouse liver homogenates. The HPLC peak of non-degraded QE at 9.7 min elution time (a-I) decreased after 180 min of probe incubation in liver homogenate, whereas a second peak, representing degradation products, appeared at 7.2 min of elution (a-II). Degradation curves of (b) QE and (c) bivQ. […] Peaks were detected at 750 nm with a UV/VIS detector. Data represent three parallels. Click here for file
Supplementary file 2191-219X-3-75-S4.pptx: Additional file 4: Metabolic stability of the optical CCK2R targeted minigastrin dQ-MG-754 [[20]]. Degradation of dQ-MG-754 for comparison with QE and bivQ. […] Probe signal was detected at 750 nm with a UV/VIS detector. Data represent three parallels. Click here for file

CCK2R (A431/CCK2R cells) = target: T1, CCK2R (A431/CCK2R cells); design: method as in PMID 23591397; conditions: earlier probe with a spacer of six uncharged D-glutamines; read-out: dissociation constant Kd; cited from earlier work
[4] = target: T2, cholecystokinin-2/gastrin receptor …; experiment: saturation binding on A431/CCK2R cells, NIR fluorescence
[5] = target: T2, cholecystokinin-2/gastrin receptor …; experiment: competition with QE probe on cells, NIR fluorescence
[6] = target: T2, cholecystokinin-2/gastrin receptor …; experiment: competition with bivQ probe on cells, NIR fluorescence

| Molecule | probe localisation in A431/CCK2R cells at 4°C (A431/CCK2R cells) | binding and internalization in A431/CCK2R cells at 37°C (A431/CCK2R cells) | binding to A431/WT cells (no CCK2R expression) (A431/WT cells) | TBR, A431/CCK2R xenografts, under competition (A431/CCK2R tumours) | tumour/background ratio (TBR), A431/CCK2R xenografts (A431/CCK2R tumours) | TBR, CCK2R-expressing xenografts (summary bound) (A431/CCK2R tumours) | TBR, A431/WT tumours (A431/WT tumours) | fluorescence accumulation in stomach, small intestine and colon ([1]; n = 5) | uptake into A431/WT tumours (biodistribution) [1] | intratumoural fluorescence at 800 nm in tumour sections [2] | metabolic stability against degradation by liver proteases [3] | also measured |
| --- | --- | --- | --- | --- | --- | --- | --- | --- | --- | --- | --- | --- |
| CSCC[C@H](NC(=O)[C@H](Cc1c[nH]c2ccccc12)NC(=O)CNC(=O)[C@H](Cc1ccc(O)cc1)NC(=O)[C@H](C)NC(=O)[C@@H](CCC(=O)O)NC(=O)[C@@H](CCC(N)=O)NC(=O)[C@@H](CCC(=O)O)NC(=O)[C@@H](CCC(N)=O)NC(=O)[C@@H](CCC(=O)O)NC(=O)[C@@H](CCC(N)=O)NC(=O)CCCC1(C)C(=CC=CC=Cc2cc(C(C)(C)C)[o+]c3cc4c(cc23)C(CS(=O)(=O)[O-])=CC(C)(C)N4CCCS(=O)(=O)O)N(CCCS(=O)(=O)O)c2ccc(S(=O)(=O)O)cc21)C(=O)N[C@@H](CC(=O)O)C(=O)N[C@@H](Cc1ccccc1)C(N)=O (stereo partly drawn) [QE] (X1-[dQ][dE][dQ][dE][dQ][dE]AYGWMDF-NH2) | restricted to the cell membrane | binding and internalization | no binding | 4.4 ± 0.9 | 6.2 ± 1.0 | > 6 | ~2 and < 2 | no fluorescence accumulation | weak uptake | only in the outer A431/CCK2R tumour regions | more stable than bivQ; also recorded: highly stable | uptake in the liver compared to free DY-754 ([1]; n = 5): weakly elevated uptake |
| CCCC[C@H](NC(=O)[C@H](Cc1c[nH]c2ccccc12)NC(=O)CNC(=O)[C@H](Cc1ccc(O)cc1)NC(=O)[C@H](C)NC(=O)[C@@H](CCC(N)=O)NC(=O)[C@@H](CCC(N)=O)NC(=O)[C@@H](CCC(N)=O)NC(=O)CSC[C@H](NC(=O)CCCC1(C)C(=CC=CC=Cc2cc(C(C)(C)C)[o+]c3cc4c(cc23)C(CS(=O)(=O)[O-])=CC(C)(C)N4CCCS(=O)(=O)O)N(CCCS(=O)(=O)O)c2ccc(S(=O)(=O)O)cc21)C(=O)N[C@H](CCC(N)=O)C(=O)N[C@H](CCC(N)=O)C(=O)N[C@H](CCC(N)=O)C(=O)N[C@@H](C)C(=O)N[C@@H](Cc1ccc(O)cc1)C(=O)NCC(=O)N[C@@H](Cc1c[nH]c2ccccc12)C(=O)N[C@@H](CCCC)C(=O)N[C@@H](CC(=O)O)C(=O)N[C@@H](Cc1ccccc1)C(N)=O)C(=O)N[C@@H](CC(=O)O)C(=O)N[C@@H](Cc1ccccc1)C(N)=O (stereo partly drawn) [bivQ] (I: X1-C[dQ][dQ][dQ]AYGW[Nle]DF-NH2 / II: [dQ][dQ][dQ]AYGW[Nle]DF-NH2; linker I:1-II:N via X2) | restricted to the cell membrane | binding and internalization | no binding | 4.0 ± 1.2 | 6.3 ± 1.4 | > 6 | < 2 | no fluorescence accumulation | weak uptake | only in the outer A431/CCK2R tumour regions | only a limited metabolic stability | – |
| dQ-MG-754: previously published optical minigastrin probe with a spacer of six uncharged D-glutamines and DY-754 (ref 20) (QQQQQQAYGWMDF; not fully specified; Synthetic minigastrin analogue; Residues 1-6 are D-Gln (the text states a spacer of six D-glutamines)) | – | – | – | – | – | – | – | – | – | – | – | Kd (CCK2R (A431/CCK2R cells)): 0.0018 ± 0.0006 µM |
| B1 | – | – | – | – | – | – | – | – | – | – | – | Kd [4]: 0.0058 µM |
| LEEEEEAYGWMDF [HG-13 minigastrin] | – | – | – | – | – | – | – | – | – | – | – | IC50 [5]: 0.0167 µM; IC50 [6]: 0.0166 µM |
